Reference: patent US20250041387A1, “POLYPEPTIDE SEQUENCE OF KDM6B AND APPLICATION OF KDM6B IN REGULATING AND CONTROLLING FUNCTION OF MESENCHYMAL STEM CELL” (BEIJING STOMATOLOGICAL HOSPITAL, CAPITAL MEDICAL UNIVERSITY, priority 2021, published 2025)
Where “and” joins values, the source holds several entries; their conditions need not be identical. Equal entries are not always repeated.

Experiments:
[1] = test system: bone marrow mesenchymal stem cells; experiment: Alizarin red staining and calcium quantification in BMSCs; type: cell-based, human; conditions: 2 weeks in osteogenic induction culture medium, FIG. 4E, F
Protocol: Result of ALP activity was calculated according to Y/incubation time/protein concentration. • (3) Alizarin red staining • 1) After two weeks of osteogenic induction, the culture medium was discarded. The cells were washed three times with PBS pre-cooled at 4° C., and fixed with 70% ethanol at 4° C. for 1 hour. • 2) The cells were washed 2 times with double distilled water, and stained with 40 mM alizarin red solution (pH 4.2) at room temperature for 10 minutes. The staining was observed by naked eyes. • 3) The cells were washed 3 times with double-distilled water. • (4) Determination of Ca^2+ concentration
To quantitatively determine the concentration of calcium, the cells were added with 10% cetyl pyridinium chloride for dissolution for 30 minutes at room temperature. The OD value was measured at 562 nm using a spectrophotometer, and the calcium ion concentration of the samples was calculated according to the standard curve of calcium ion concentration, with the total protein concentration as an internal reference.

[2] = test system: stem cells from apical papilla; experiment: β-gal staining and quantification in SCAPs; type: cell-based, human; conditions: SCAPs treated with polypeptide, FIG. 8C, D
Protocol: Prior to the start of the experiment, the GENMED staining solution (Reagent E) in the kit was taken out of the refrigerator at −20° C., and thawed in an ice bath. Then 9.5 mL of GENMED dilution (Reagent D) was added into a 15 ml conical centrifuge tube, added with 500 μL of GENMED staining solution (Reagent E), mixed well, and then preheated in a 37° C. thermostatic sink. The obtained mixture was labeled as GENMED staining working solution.

[3] = test system: OVX mouse of osteoporosis model; experiment: OVX mouse osteoporosis model, micro-CT of distal femur; type: in vivo, C57BL/6 mice; conditions: OVX mice, 10 mg/kg intraperitoneally for 3 months from 6 weeks after ovary removal, individual mice, FIG. 19B, listed as 114 peptide
Excerpt: Twenty five 3-month-old C57BL/6 mice were purchased from Vital River and randomly divided into sham operation group, OVX group, PBS group, control peptide group and 114 peptide group, with five mice in each group. The osteoporosis model was established by removing bilateral ovaries in OVX, PBS, control peptide and 114 peptide groups. In the sham operation group, ovaries were not removed. 6 weeks after ovary removal, the mice were intraperitoneally injected with control peptide and peptide 114 at 10 mg/kg for continuous 3 months, and then sacrificed. For the distal femur, the left distal femur of each mouse was scanned ex vivo using a micro-CT system. Each segment of bone trabeculae was selected for segmentation, and subjected to 3D reconstruction. BMD was calculated.

[4] = test system: telomerase reverse transcriptase; experiment: ELISA assay of telomerase reverse transcriptase in SCAPs; type: cell-based, human; conditions: SCAPs treated with polypeptide, FIG. 8B
Protocol: • (1) Pre-detection preparation: A standard curve was calculated and plotted using a standard concentration gradient of 400 ng/mL, 200 ng/ml, 100 ng/ml, 50 ng/mL, 25 ng/ml, 12.5 ng/mL, 6.25 ng/mL, and 0 ng/mL. • (2) 100 μL of the standards and samples were added to each well of a 96-well plate. The plate was covered with a provided sealing film, and incubated at 37° C. for 2 hours. The name of the sample was noted on the surface of the sealing film. • (3) The sample in each well was discarded and spin-dried without washing. • (4) 100 μL of Biotin-antibody (1×) was added to each well. The plate was covered with a sealing film, and incubated at […] for 1 hour. If Biotin-antibody (1×) appeared cloudy, Biotin-antibody was warmed to room temperature and stirred gently until clear. • (5) The sample in each well was discarded. Each well was added with 200 μL of Wash Buffer using a multichannel pipette and left to stand for 2 minutes for washing. This process was repeated twice for a total of three times of washing. Complete removal of liquid at each step was critical for good performance. After the last time of washing, the Wash Buffer was discarded, and the 96-well plate was turned upside down and dried with a clean paper. • (6) 100 μL of HRP-avidin (1×) was added to each well. The 96-well microtiter plate was covered with a new sealing film and incubated at 37° C. for 1 hour. • (7) The process of discarding samples and washing in […] was repeated 5 times. • (8) 90 μL of TMB Substrate was added to each well. The plate was incubated in the dark at 37° C. for 15-30 minutes. 50 μL of Stop Solution was added to each well, and the plate was gently taped to mix solution evenly. • (9) The optical density of each well was detected at 450 nm within 5 min using a microtiter plate reader.

[5] = target: KDM6B/WDR5 protein complex (Homo sapiens, UniProt P61964); experiment: Co-IP of KDM6B/WDR5 complex in stem cells from apical papilla; type: cell-based; set-up: endogenous in cells; host or cells: stem cells from apical papilla (SCAPs); conditions: SCAPs treated with polypeptide, compared to control group; FIG. 8A
Protocol: Protein was extracted from cells of knockout group and overexpression group using IP lysate. The knockout group cells SCAPs-Scramsh and SCAPs-KDM6Bsh, SCAPs-Scramsh and SCAPs-WDR5sh, BMSCs-Scramsh and BMSCs-WDR5sh were added with KDM6B antibody, WDR5 antibody, and IgG antibody, respectively, and then rotated on a shaker at 4° C. overnight. On the next day, the cells were added with Protein A/G beads and rotated on a rotary shaker at 4° C. for 2 hours. A complex of protein-antibody-agarose bead was formed, and the formation of a protein complex of KDM6B and WDR5WB was detected by WB. The overexpression group cells SCAPs-Vector, SCAPs-HA-KDM6B, SCAPs-HA-KDM6B-mut102, and SCAPs-HA-KDM6B-mut114 were added with ProteinA/G beads with HA antibody, and cells SCAPs Vector and SCAPs-Myc-WDR5 were added with ProteinA/G beads with Myc antibody. All cells were incubated overnight to form a complex of protein-antibody-agarose bead. The formation of a protein complex of KDM6B and WDR5 was detected by WB method. • (2) Grouping: Input group (loading amount of 25 μg); antibody group (loading amount of 800 μg, 2 μg of antibody); IgG group (loading amount of 800 μg, 2 μg of antibody). Samples were diluted with lysate. • (3) Preparation of protein A/G beads
The protein A/G beads were washed 4 times with PBS, and centrifuged at 2000 g for 2 minutes. […]

With “FITC-(Acp)-ADLTISHCAADVVRAYGRKKRRQRRR [peptide 114]” the “mineralization capacity, quantification of calcium ion” value [1] was “significantly higher”, the “mineralization capacity, quantification of calcium ion” value ([1]; listed as 114 peptide) was 1.807 and the “number of β-gal positive cells (quantification)” value (“number of β-gal positive cells” for short) [2] was “significant reduction”. The “number of β-gal positive cells” value ([2]; listed as 114 peptide) was 3.978, the “bone density (BMD) of femoral bone trabeculae” value [3] was “significant up-regulation and 0.1440 and 0.1242 and 0.1416 and 0.1071 and 0.1137” and the “expression of telomerase reverse transcriptase (ELISA)” value (shortened to “expression”) [4] was “promoted the expression”. The “expression” value ([4]; listed as 114 peptide) was 0.05168 and the “binding of KDM6B to WDR5 (Co-IP)” value [5] was “reduced”.

In the case of “FITC-(Acp)-KEKSRRVLGNLDLQSYGRKKRRQRRR [peptide 102]”, the “mineralization capacity, quantification of calcium ion” value [1] is reported as “significantly higher”, the “mineralization capacity, quantification of calcium ion” value ([1]; listed as 102 peptide) is reported as 1.584 and the “number of β-gal positive cells” value [2] is reported as “significant reduction”. For the same substance, the “number of β-gal positive cells” value ([2]; listed as 102 peptide) was 7.296, the “expression” value [4] was 0.03331 and the “binding of KDM6B to WDR5 (Co-IP)” value [5] was “reduced”.
